Measured values published in US8841483B2, “Compositions useful as inhibitors of voltage-gated sodium channels” (Vertex Pharmaceuticals Incorporated, priority 2006, dated 2014).

Target: NaV1.8 (Homo sapiens, UniProt Q9Y5Y9)
Assay: Activity against NaV 1.8 channel (Table 3), optical membrane potential / electrophysiology assays
Type: cell-based
Protocol: Compounds of the invention are useful as antagonists of voltage-gated sodium ion channels. Antagonist properties of test compounds were assessed as follows. Cells expressing the NaV of interest were placed into microtiter plates. After an incubation period, the cells were stained with fluorescent dyes sensitive to the transmembrane potential. The test compounds were added to the microtiter plate. The cells were stimulated with either a chemical or electrical means ti evoke a NaV dependent membrane potential change from unblocked channels, which was detected and measured with trans-membrane potential-sensitive dyes. Antagonists were detected as a decreased membrane potential response to the stimulus. The optical membrane potential assay utilized voltage-sensitive FRET sensors described by Gonzalez and Tsien (See, Gonzalez, J. E. and R. Y. Tsien (1995) “Voltage sensing by fluorescence resonance energy transfer in single cells” Biophys J 69(4): 1272-80, and Gonzalez, J. E. and R. Y. Tsien (1997) “Improved indicators of cell membrane potential that use fluorescence resonance energy transfer” Chem Biol 4(4): 269-77) in combination with instrumentation for measuring fluorescence changes such as the Voltage/Ion Probe Reader (VIPR®) (See, Gonzalez, J. E., K. Oades, et al. (1999) “Cell-based assays and instrumentation for screening ion-channel targets” Drug Discov Today 4(9): 431-439).
The following is an example of how NaV1.3 inhibition activity is measured using the optical membrane potential method #2. Other subtypes are performed in an analogous mode in a cell line expressing the NaV of interest.
HEK293 cells stably expressing NaV1.3 are plated into 96-well microtiter plates. After an appropriate incubation period, the cells are stained with the voltage sensitive dyes CC2-DMPE/DiSBAC2(3) as follows.
2X CC2-DMPE=20 μM CC2-DMPE: 10 mM CC2-DMPE is vortexed with an equivalent volume of 10% pluronic, followed by vortexing in required amount of HBSS containing 10 mM HEPES. Each cell plate will require 5 mL of 2X CC2-DMPE. 50 μL of 2X CC2-DMPE is to wells containing washed cells, resulting in a 10 μM final staining concentration. The cells are stained for 30 minutes in the dark at RT.
2X DISBAC2(3) with ABSC1=6 μM DISBAC2(3) and 1 mM ABSC1: The required amount of 10 mM DISBAC2(3) is added to a 50 ml conical tube and mixed with 1 μL 10% pluronic for each mL of solution to be made and vortexed together. Then HBSS/HEPES is added to make up 2X solution. Finally, the ABSC1 is added.
The 2X DiSBAC2(3) solution can be used to solvate compound plates. Note that compound plates are made at 2X drug concentration. Wash stained plate again, leaving residual volume of 50 μL. Add 50 uL/well of the 2X DiSBAC2(3) w/ABSC1. Stain for 30 minutes in the dark at RT.
The electrical stimulation instrument and methods of use are described in ION Channel Assay Methods PCT/US01/21652, herein incorporated by reference. The instrument comprises a microtiter plate handler, an optical system for exciting the coumarin dye while simultaneously recording the coumarin and oxonol emissions, a waveform generator, a current- or voltage-controlled amplifier, and a device for inserting electrodes in well. Under integrated computer control, this instrument passes user-programmed electrical stimulus protocols to cells within the wells of the microtiter plate.
Assay Protocol • 1. Insert or use electrodes into each well to be assayed. • 2. Use the current-controlled amplifier to deliver stimulation wave pulses for 3 s. Two seconds of pre-stimulus recording are performed to obtain the un-stimulated intensities. Five seconds of post-stimulation recording are performed to examine the relaxation to the resting state.
Data are analyzed and reported as normalized ratios of background-subtracted emission intensities measured in the 460 nm and 580 nm channels. Background intensities are then subtracted from each assay channel. […]

| IC50 [µM] | Compound |
| --- | --- |
| > 10 | NS(=O)(=O)c1cccc(NC(=O)c2ccc(C(F)(F)F)cc2C(F)(F)F)c1 [Compound 81] |
| > 10 | CN(C)c1ccccc1C(=O)Nc1cccc(S(N)(=O)=O)c1 [Compound 44] |
| 2 to 10 | NS(=O)(=O)c1cccc(NC(=O)c2ccccc2COc2ccccc2)c1 [Compound 12] |
| > 10 | COc1cc(C)c(S(N)(=O)=O)cc1NC(=O)c1ccc(C(C)(C)C)cc1 [Compound 43] |
| > 10 | NS(=O)(=O)c1cccc(NC(=O)c2ccc(Cl)cc2Cl)c1 [Compound 120] |
| > 10 | NS(=O)(=O)c1cccc(NC(=O)c2ccc(Cl)c(Cl)c2)c1 [Compound 3] |
| > 10 | CCc1cc(C(=O)Nc2cccc(S(N)(=O)=O)c2)ccc1-c1ccccc1 [Compound 65] |
| 2 to 10 | COc1ccc(Oc2ccccc2C(=O)Nc2cccc(S(N)(=O)=O)c2)cc1 [Compound 50] |
| < 2 | CC(C)(C)c1ccc(C(=O)Nc2cccc(S(N)(=O)=O)c2)c(Br)c1 [Compound 93] |
| > 10 | NS(=O)(=O)c1cccc(NC(=O)c2cccc(C(=O)c3ccccc3)c2)c1 [Compound 18] |
| > 10 | CCCCOc1ccc(C(=O)Nc2cccc(S(N)(=O)=O)c2)cc1 [Compound 57] |
| > 10 | NS(=O)(=O)c1cccc(NC(=O)c2cccc(C(F)(F)F)c2)c1 [Compound 35] |
| < 2 | NS(=O)(=O)c1cccc(NC(=O)c2ccccc2C2CCCCC2)c1 [Compound 83, 2-Cyclohexyl-N-(3-(aminosulfonyl)phenyl)benzamide] |
| > 10 | Cc1cc(Br)ccc1C(=O)Nc1cccc(S(N)(=O)=O)c1 [Compound 2] |
| < 2 | NS(=O)(=O)c1cccc(NC(=O)c2ccccc2Oc2ccc(F)cc2)c1 [Compound 95] |
| > 10 | CN(C(=O)c1ccc(C(C)(C)C)cc1)c1cccc(S(N)(=O)=O)c1 [Compound 90, 4-tert-Butyl-N-methyl-N-(3-(aminosulfonyl)phenyl)benzamide] |
| 2 to 10 | CC(C)(C)c1ccc(C(=O)Nc2cccc(S(N)(=O)=O)c2)c(Oc2ccccc2C#N)c1 [Compound 111] |
| > 10 | NS(=O)(=O)c1cccc(NC(=O)c2ccc3ccccc3c2)c1 [Compound 62] |
| > 10 | CC(C)(C)c1ccc(C(=O)Nc2cc(S(N)(=O)=O)ccc2Cl)cc1 [Compound 87] |
| > 10 | NS(=O)(=O)c1cccc(NC(=O)c2ccc(Cl)cc2)c1 [Compound 31] |
| 2 to 10 | CC(=O)c1ccccc1Oc1cc(C(C)(C)C)ccc1C(=O)Nc1cccc(S(N)(=O)=O)c1 [Compound 102] |

| IC50 [µM] | Compound |
| --- | --- |
| 2 to 10 | Cc1ccc(Oc2ccccc2C(=O)Nc2cccc(S(N)(=O)=O)c2)cc1 [Compound 59] |
| > 10 | NS(=O)(=O)c1cccc(NC(=O)c2cccc(Br)c2)c1 [Compound 40] |
| > 10 | Cc1cc(C)c(S(N)(=O)=O)cc1NC(=O)c1ccc(C(C)(C)C)cc1 [Compound 25] |
| > 10 | NS(=O)(=O)c1cccc(NC(=O)c2ccccc2Oc2cccc(N3CCOCC3)c2)c1 [Compound 89] |
| < 2 | COc1ccccc1Oc1ccccc1C(=O)Nc1cccc(S(N)(=O)=O)c1 [Compound 23] |
| > 10 | NS(=O)(=O)c1cccc(NC(=O)c2ccc(Cc3ccccc3)cc2)c1 [Compound 5] |
| < 2 | CC(C)(C)c1ccc(C(=O)Nc2cccc(S(N)(=O)=O)c2)c(Oc2ccccc2N2CCOCC2)c1 [Compound 98] |
| 2 to 10 | Cc1ccc(-c2ccccc2C(=O)Nc2cccc(S(N)(=O)=O)c2)cc1 [Compound 75] |
| > 10 | COC(=O)c1ccc(C(=O)Nc2cccc(S(N)(=O)=O)c2)cc1 [Compound 37] |
| > 10 | NS(=O)(=O)c1cccc(NC(=O)c2ccc(-c3ncc[nH]3)cc2)c1 [Compound 19] |
| < 2 | COC(=O)c1ccc(Oc2cc(C(C)(C)C)ccc2C(=O)Nc2cccc(S(N)(=O)=O)c2)cc1 [Compound 125] |
| < 2 | Cc1cc(F)ccc1Oc1cc(C(C)(C)C)ccc1C(=O)Nc1cccc(S(N)(=O)=O)c1 [Compound 108] |
| < 2 | CC(C)(C)c1ccc(C(=O)Nc2cccc(S(N)(=O)=O)c2)c(Oc2cccnc2)c1 [Compound 61] |
| > 10 | Cc1c(Cl)cc(S(N)(=O)=O)cc1NC(=O)c1ccc(C(C)(C)C)cc1 [Compound 46] |
| < 2 | Cc1ncccc1Oc1cc(C(F)(F)F)ccc1C(=O)Nc1cccc(S(N)(=O)=O)c1 [Compound 138, 2-(2-methylpyridin-3-yloxy)-N-(3-sulfamoylphenyl)-4-(trifluoromethyl)benzamide] |
| < 2 | CC(C)(C)c1ccc(C(=O)Nc2cccc(S(N)(=O)=O)c2)c(Oc2cccc(C(F)(F)F)c2)c1 [Compound 134] |
| > 10 | NS(=O)(=O)c1cccc(NC(=O)c2ccc(C(F)(F)F)cc2O)c1 [Compound 100] |
| < 2 | CC(C)(C)c1ccc(C(=O)Nc2cccc(S(N)(=O)=O)c2)c(Oc2ccc(C(F)(F)F)nc2)c1 [Compound 115] |
| 2 to 10 | CC(C)(C)NS(=O)(=O)c1cccc(NC(=O)c2ccc(C(C)(C)C)cc2Br)c1 [Compound 126] |
| 2 to 10 | NS(=O)(=O)c1cccc(NC(=O)c2cccc(Oc3ccccc3)c2)c1 [Compound 15] |
| > 10 | NS(=O)(=O)c1cccc(NC(=O)c2ccc(-c3ncns3)cc2)c1 [Compound 49] |

| IC50 [µM] | Compound |
| --- | --- |
| > 10 | COc1cc(C)ccc1C(=O)Nc1cccc(S(N)(=O)=O)c1 [Compound 77] |
| > 10 | Cc1ccc(C(=O)Nc2cccc(S(N)(=O)=O)c2)c(Br)c1 [Compound 142] |
| > 10 | NS(=O)(=O)c1cccc(NC(=O)c2ccc(Cl)cc2Br)c1 [Compound 70] |
| < 2 | NS(=O)(=O)c1cccc(NC(=O)c2ccccc2Oc2ccccc2N2CCCCC2)c1 [Compound 53, 2-(2-(Piperidin-1-yl)phenoxy)-N-(3-(aminosulfonyl)phenyl)benzamide] |
| > 10 | COc1ccc(C(=O)Nc2cccc(S(N)(=O)=O)c2)c(C(F)(F)F)c1 [Compound 133] |
| < 2 | CC(C)(C)c1ccc(C(=O)Nc2cccc(S(N)(=O)=O)c2)c(Sc2ccccc2)c1 [Compound 105] |
| > 10 | CC(C)(C)c1cccc(Nc2ccccc2C(=O)Nc2cccc(S(N)(=O)=O)c2)c1 [Compound 26] |
| > 10 | Cc1ccc(C(=O)Nc2cccc(S(N)(=O)=O)c2)cc1 [Compound 38] |
| < 2 | CN(C)S(=O)(=O)c1cccc(NC(=O)c2ccc(C(C)(C)C)cc2Oc2ccc(F)cc2Cl)c1 [Compound 121] |
| > 10 | CC(C)(C)c1ccc(C(=O)Nc2cccc(S(N)(=O)=O)c2)c(Oc2ccc(C(N)=O)cc2)c1 [Compound 118] |
| < 2 | CC(C)(C)c1ccc(C(=O)Nc2cccc(S(N)(=O)=O)c2)cc1 [Compound 67] |
| 2 to 10 | COc1cccc(Oc2cc(C(C)(C)C)ccc2C(=O)Nc2cccc(S(N)(=O)=O)c2)c1 [Compound 139] |
| > 10 | NS(=O)(=O)c1cccc(NC(=O)c2ccc3c(c2)OCO3)c1 [Compound 32] |
| 2 to 10 | COc1cccc(Oc2ccccc2C(=O)Nc2cccc(S(N)(=O)=O)c2)c1 [Compound 84] |
| > 10 | CCCc1ccc(C(=O)Nc2cccc(S(N)(=O)=O)c2)cc1 [Compound 66] |
| > 10 | NS(=O)(=O)c1cccc(NC(=O)c2ccccc2-c2ccccc2)c1 [Compound 94] |
| > 10 | NS(=O)(=O)c1cccc(NC(=O)c2ccccc2N2CCOCC2)c1 [Compound 92] |
| 2 to 10 | NS(=O)(=O)c1cccc(NC(=O)c2ccccc2CCc2ccccc2)c1 [Compound 71] |
| < 2 | Cc1ccc(Oc2cc(C(C)(C)C)ccc2C(=O)Nc2cccc(S(N)(=O)=O)c2)cn1 [Compound 144] |
| < 2 | CC(C)Cc1ccc(C(=O)Nc2cccc(S(N)(=O)=O)c2)cc1 [Compound 80] |
